How the values were obtained:
[1] = tested on: Fusarium graminearum, Syn. Gibberella zeae; test: whole plant or invertebrate; assay type: in vivo; settings: in Triticum aestivum, read-out: inhibition (preventative fungicidal activity)
Fusarium culmorum = test: whole plant or invertebrate; assay type: in vivo; settings: in Triticum aestivum, read-out: inhibition (preventative fungicidal activity)
Pyrenophora teres = test: Action against Pyrenophora teres (net blotch), barley leaf segments, preventive; assay type: in vivo; settings: foliar, 60 ppm active ingredient, sprayed before inoculation, assessed 4 dpi, read-out: inhibition (preventive fungicidal activity)
Protocol: (§1) Barley leaf segments are placed on agar in multiwell plates (24-well format) and sprayed with test solutions (60 ppm active ingredient). After drying, the leaf disks are inoculated with a spore suspension of the fungus. After appropriate incubation the activity of a compound is assessed 4 dpi (days after inoculation) as preventive fungicidal activity.

[2] = tested on: Monographella nivalis (Microdochium nivale); test: Action against Monographella nivalis/liquid culture (foot rot cereals); assay type: cell-based; settings: liquid culture (PDB), 200 ppm active ingredient, 24° C., photometrically after 4-6 days
Protocol: Conidia of the fungus from cryogenic storage are directly mixed into nutrient broth (PDB potato dextrose broth). After placing a (DMSO) solution of the test compounds (200 ppm active ingredient) into a microtiter plate (96-well format) the nutrient broth containing the fungal spores is added. The test plates are incubated at 24° C. and the inhibition of growth is measured photometrically after 4-6 days.

[3] = tested on: Phaeosphaeria nodorum (Septoria nodorum); test: Action against Phaeosphaeria nodorum/wheat/leaf disc preventative (glume blotch); assay type: in vivo; settings: wheat leaf segments, 60 ppm active ingredient, sprayed before inoculation, assessed 4 dpi
Protocol: as §1, with “Wheat leaf segments” for “Barley leaf segments”, “agar in a multiwell plate” for “agar in multiwell plates”, “a multiwell plate (24-well format)” for “in multiwell plates (24-well format)”

Puccinia recondita = test: Action against Puccinia recondita/wheat/leaf disc curative (brown rust); assay type: in vivo; settings: wheat leaf segments, 200 ppm active ingredient, applied one day after inoculation, assessed 8 dpi
Text: Wheat leaf segments are placed on agar in multiwell plates (24-well format). The leaf disks are then inoculated with a spore suspension of the fungus. One day after inoculation the test solution is applied (200 ppm active ingredient).

Row | Structure (SMILES) | inhibition of growth [2] [%] | inhibition (preventive fungicidal activity) [3] [%] | further results
1 | CON(C(=O)c1cn(C)nc1C(F)F)C(C)Cc1sc2ccc(Cl)cc2c1Cl (centres unmarked) [Compound 1.001, 3-Difluoromethyl-1-methyl-1H-pyrazole-4-carboxylic acid [2-(3,5-dichlorobenzo[b]thiophen-2-yl)-1-methyl-ethyl]methoxyamide] | – | – | inhibition at 60 ppm [1]: ≥ 80%; inhibition at 60 ppm (Fusarium culmorum): ≥ 80%; inhibition at 60 ppm (Pyrenophora teres): ≥ 80%; melting point: 129 to 131 °C
2 | CON(C(=O)c1cn(C)nc1C(F)F)C(C)Cc1sc2cc(Cl)ccc2c1Cl (centres unmarked) [Compound 1.002] | 80 | 80 | –
3 | CON(C(=O)c1cn(C)nc1C(F)(F)F)C(C)Cc1sc2cc(Cl)ccc2c1Cl (centres unmarked) [Compound 2.002] | 80 | 80 | –
4 | COC(c1sc2cc(Cl)ccc2c1Cl)C(C)N(OC)C(=O)c1cn(C)nc1C(F)F (centres unmarked) [Compound 1.015] | 80 | 80 | –
5 | CON(C(=O)c1c(C)nn(C)c1F)C(C)Cc1sc2cc(Cl)ccc2c1Cl (centres unmarked) [Compound 3.002] | – | 80 | –
6 | CC(Cc1sc2ccc(Cl)cc2c1Cl)N(O)C(=O)c1cn(C)nc1C(F)F (centres unmarked) [Compound 1.010] | 80 | – | –
7 | CON(C(=O)c1cn(C)nc1C(F)F)C(C)Cc1sc2ccc(Br)cc2c1Cl (centres unmarked) [Compound 1.006] | 80 | 80 | inhibition (curative fungicidal activity) (Puccinia recondita): 80%
8 | COC(c1sc2cc(Cl)ccc2c1Cl)C(C)N(OC)C(=O)c1cn(C)nc1C(F)(F)F (centres unmarked) [Compound 2.015] | 80 | – | –
9 | COC(c1sc2ccc(Br)cc2c1Cl)C(C)N(OC)C(=O)c1cn(C)nc1C(F)F (centres unmarked) [Compound 1.016] | 80 | – | –

From US8268877B2, “Microbiocides” (Syngenta Crop Protection, LLC, priority 2009, dated 2012)
